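Following 48 hours of exposure in 96-well plates, responses at five concentrations were used to interpolate endpoints linearly. Abbreviation: GI50, concentration required for 50% inhibition of growth.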 Active and inactive are the calls of the source. Cut-off read from the data, not from the text of the source: active = GI50 up to about 1.1 µM and inactive = higher.
Key:
Assay in all cases: growth of human tumour cells (NCI), 48 h
786-0 = tested on: 786-0
DU-145 = tested on: DU-145
HCT-116 = tested on: HCT-116
HCT-15 = tested on: HCT-15
HL-60 = tested on: HL-60
HOP-92 = tested on: HOP-92
K562 = tested on: K562
M14 = tested on: M14
MCF7 = tested on: MCF7
MDA-N = tested on: MDA-N
NCI-H522 = tested on: NCI-H522
OVCAR-5 = tested on: OVCAR-5
OVCAR-8 = tested on: OVCAR-8
PC-3 = tested on: PC-3
RPMI-8226 = tested on: RPMI-8226
SF-295 = tested on: SF-295
SK-OV-3 = tested on: SK-OV-3
SNB-19 = tested on: SNB-19
T47D = tested on: T47D
UACC-257 = tested on: UACC-257

`Cn1c(=O)c2nc(CCCCc3nc4ccccc4[nH]3)[nH]c2n(C)c1=O` was tested, and the GI50 (786-0) was > 100 µM (inactive), the GI50 (DU-145) was > 100 µM (inactive) and the GI50 (HCT-116) was > 100 µM (inactive). For the same molecule, the GI50 (HCT-15) was greater than 100 µM, the GI50 (HL-60) was > 100 µM (inactive) and the GI50 (HOP-92) was 21.4 µM (inactive). For the same molecule, the GI50 (K562) was > 100 µM (inactive), the GI50 (M14) was > 100 µM (inactive) and the GI50 (MCF7) was > 100 µM (inactive). For the same molecule, the GI50 (MDA-N) was > 100 µM (inactive), the GI50 (NCI-H522) was > 100 µM (inactive) and the GI50 (OVCAR-5) was > 100 µM (inactive). For the same molecule, the GI50 (OVCAR-8) was > 100 µM (inactive), the GI50 (PC-3) was > 100 µM (inactive) and the GI50 (RPMI-8226) was > 100 µM (inactive). The GI50 (SF-295) was > 100 µM (inactive), the GI50 (SK-OV-3) was > 100 µM (inactive) and the GI50 (SNB-19) was > 100 µM (inactive). For the same molecule, the GI50 (T47D) was > 100 µM (inactive) and the GI50 (UACC-257) was > 100 µM (inactive).

`O=C(Nc1ccc2ncccc2c1)c1cc2c(cc1Cl)Sc1nccn1S2(=O)=O` was tested, and the GI50 (786-0) was 13.6 µM (inactive), the GI50 (DU-145) was 14.3 µM (inactive) and the GI50 (HCT-116) was 12.8 µM (inactive). For the same molecule, the GI50 (HCT-15) was 11 µM, the GI50 (HL-60) was 9.27 µM (inactive) and the GI50 (HOP-92) was 27.7 µM (inactive). For the same molecule, the GI50 (K562) was 6.31 µM (inactive), the GI50 (M14) was 15.1 µM (inactive) and the GI50 (MCF7) was 6.12 µM (inactive). The GI50 (MDA-N) was 5.56 µM (inactive), the GI50 (NCI-H522) was 8.97 µM (inactive) and the GI50 (OVCAR-5) was 20.9 µM (inactive). For the same molecule, the GI50 (OVCAR-8) was 16.5 µM (inactive), the GI50 (PC-3) was 33.6 µM (inactive) and the GI50 (RPMI-8226) was 6.85 µM (inactive). For the same molecule, the GI50 (SF-295) was 15.9 µM (inactive), the GI50 (SK-OV-3) was 33.3 µM (inactive) and the GI50 (SNB-19) was 16.4 µM (inactive). The GI50 (T47D) was 14.7 µM (inactive) and the GI50 (UACC-257) was 20.1 µM (inactive).

In the case of `CCOC(=O)c1sc2nc(SC)nc3c2c1N=CN3c1ccccc1Cl`, the GI50 (786-0) is reported as 14.1 µM (inactive), the GI50 (DU-145) is reported as > 100 µM (inactive) and the GI50 (HCT-116) is reported as 40.9 µM (inactive). For the same molecule, the GI50 (HCT-15) was greater than 100 µM, the GI50 (HL-60) was 79.8 µM (inactive) and the GI50 (HOP-92) was 22.6 µM (inactive). The GI50 (K562) was 72.3 µM (inactive), the GI50 (M14) was 62.1 µM (inactive) and the GI50 (MCF7) was > 100 µM (inactive). For the same molecule, the GI50 (MDA-N) was > 100 µM (inactive), the GI50 (NCI-H522) was 20.5 µM (inactive) and the GI50 (OVCAR-5) was > 100 µM (inactive). For the same molecule, the GI50 (OVCAR-8) was 52.6 µM (inactive), the GI50 (PC-3) was > 100 µM (inactive) and the GI50 (RPMI-8226) was > 100 µM (inactive). The GI50 (SF-295) was 32.7 µM (inactive), the GI50 (SK-OV-3) was 31.4 µM (inactive) and the GI50 (SNB-19) was 29.4 µM (inactive). The GI50 (T47D) was 58.5 µM (inactive) and the GI50 (UACC-257) was > 100 µM (inactive).

For `CC(C)OC(=O)c1ccc(CCc2cc(O)c(Br)cc2O)cc1`, the GI50 (786-0) was 12 µM (inactive), the GI50 (DU-145) was 14.4 µM (inactive) and the GI50 (HCT-116) was 11.5 µM (inactive). The GI50 (HCT-15) was 6.18 µM, the GI50 (HL-60) was 5.85 µM (inactive) and the GI50 (HOP-92) was 20.9 µM (inactive). The GI50 (K562) was 8.65 µM (inactive), the GI50 (M14) was 15.6 µM (inactive) and the GI50 (MCF7) was 11.7 µM (inactive). For the same molecule, the GI50 (MDA-N) was 9.55 µM (inactive), the GI50 (NCI-H522) was 6.24 µM (inactive) and the GI50 (OVCAR-5) was 17.5 µM (inactive). For the same molecule, the GI50 (OVCAR-8) was 13.9 µM (inactive), the GI50 (PC-3) was 8.32 µM (inactive) and the GI50 (RPMI-8226) was 2.72 µM (inactive). For the same molecule, the GI50 (SF-295) was 17.3 µM (inactive), the GI50 (SK-OV-3) was 16.6 µM (inactive) and the GI50 (SNB-19) was 14.8 µM (inactive). The GI50 (T47D) was 22 µM (inactive) and the GI50 (UACC-257) was 13.6 µM (inactive).
